The values below are quoted from earlier work in paper PMC2119397 (The Journal of Experimental Medicine, 1992).

Like-named read-outs stand apart in the source and are kept apart here.

This series deals with DR1.

Turning to NALYKMNAVAKAA [NNX 83-91], where the note is “ref Sinigaglia, F., unpublished observation”, the “DR1 binding (in words)” value was “DR1 binding”.

As to PKYVKQNTLKLAT [HA 307-319], the “DR1 binding (in words)” value was “DR1 binding”.

In the case of “TT 830-843: DR1-binding synthetic peptide of tetanus toxoid (QYIKANSKFIGITE; UniProt P04958 830-843, looked up, fragment)”, the “DR1 binding (in words)” value is “DRl-binding”.
